From patent US11118227B2, “Methods of identifying agents having neuroprotective or anti-oxidant activity for regulating mitochondrial function” (THE ROYAL VETERINARY COLLEGE, priority 2015, dated 2021)
Entries after “also recorded” stand apart in the source; their conditions may differ.

Experiments:
TSPO [1] = test: Immunofluorescence and immunoblot of TSPO in SHY-5Y cells treated with PD toxins; type: cell-based
Excerpt: a. Representative immunofluorescence of TSPO in SHY-5Y Cells. Panels b and c: Immunoblot analysis of TSPO expression pattern and ATPB5 in SHY-5Y Cells treated with MPP^+ and 6-OHD.

[2] = target: T1, human Keap1 Kelch protein (Homo sapiens, UniProt Q14145); test: Biochemical experiments on the Keap1-Nrf2 protein-protein interaction with human Keap1 Kelch protein
T1 construct: human Keap1 Kelch protein
T1 sequence (Q14145 321-609 limits assumed): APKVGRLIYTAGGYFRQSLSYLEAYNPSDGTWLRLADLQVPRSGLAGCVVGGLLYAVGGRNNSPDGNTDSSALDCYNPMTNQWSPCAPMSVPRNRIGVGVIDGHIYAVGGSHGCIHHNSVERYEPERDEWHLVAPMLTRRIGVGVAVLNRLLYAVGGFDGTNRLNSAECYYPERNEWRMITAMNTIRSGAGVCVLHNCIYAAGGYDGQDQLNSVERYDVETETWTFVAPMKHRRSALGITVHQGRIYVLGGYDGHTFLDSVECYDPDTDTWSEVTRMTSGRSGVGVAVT
Description: To confirm the mode of action of PMI, a series of biochemical experiments were conducted with human Keap1 Kelch protein.

MEF cells [3] = test: Western blot of mitochondrial protein levels (MTCO-1, β-subunit) in MEF cells; type: cell-based, mouse; details: 24 h; for mitochondrial network / key mitochondrial protein levels by western blot: vs untreated cells; for PMI (Nrf2)-induced reduction of mitochondrial protein levels, on co-administration of sulforaphane: 10 μM PMI & 1 μM sulforaphane
Description: [β-actin is shown as a loading control.
B-actin is shown as a loading control.
(§1) B-actin is shown as a loading control. […].
(§2) (A) Western blot to compare β-subunit, MTCO-1 and TSPO levels in MEFs treated with either DMSO vehicle control, or sulforaphane (1 μM), or PMI (10 μM) either with or without co-administration of UO126 (10 μM) for 24 h. B-actin is shown as a loading control.

MEF cells [4] = test: Confocal imaging of colocalisation of mitochondria and LC-3 in MEF cells; type: cell-based, mouse; details: 24 hr; for mitochondrial LC3 colocalisation (mitophagy): 1 μM sulforaphane or 10 μM PMI, FIG. 2D
Description: (§3) (D) Representative images of LC3 localization in MEF cells treated with DMSO vehicle control, or 1 μM sulforaphane and/or 10 μM PMI for 24 hr. Scale bar represents 10 μm. A magnification of the merge images is shown in areas demarcated by the white box.
To investigate the effects of sulforaphane in mitophagy, we examined the colocalisation of mitochondria and LC-3 in MEF cells using high-resolution confocal imaging (FIG. 2D).

MEF cells [5] = test: Western blot of mitochondrial protein ubiquitination in mitochondrial fractions of MEF cells; type: cell-based, mouse; details: 24 h, FIG. 3B
Excerpt: (B) Western blot of mitochondrial fractions, highlighting mitochondrial ubiquitination in control or sulforaphane and/or PMI-treated MEF cells. B-subunit is shown as a loading control; n=2.
(§4) The levels and localisation of p62 in MEF cells were then examined by immunoblotting (FIG. 3A).

PARK2 [6] = test: Western blot of PARK2 in mitochondrial fractions of MEF cells (basal conditions); type: cell-based, mouse; details: 24 h; for levels of PARK2 in mitochondrial fractions: basal, vs vehicle control, FIG. 4A-B
Description: We therefore examined the ability of PARK2 to translocate to mitochondria either under basal conditions or after Carbonyl cyanide-4-(trifluoromethoxy)phenylhydrazone (FCCP an ionophore) treatment.

PARK2 [7] = test: Immunocytochemistry of FCCP-induced PARK2 translocation in MEF cells; type: cell-based, mouse; details: 24 hr treatment then FCCP (20 μM) 4 hr, vs vehicle control, FIG. 4E
Description: as §3, with “(E)” for “(D)”, “PARK2” for “LC3”, “control” for “control,”, “24 hr, before and after treatment with FCCP (20 μM) for 4” for “24”

PARK2 [8] = test: Live imaging of YFP-PARK2 translocation in HeLa cells co-transfected with mt-RFP and YFP-PARK2; type: cell-based; details: for time of FCCP treatment to almost complete co-localisation of PARK2 in mitochondria: YFP-PARK2; for time of FCCP treatment at which PARK2 translocation was initiated: YFP-PARK2, pre- or co-treated
HeLa cells = test: Western blot of mitochondrial proteins (mitophagy) in HeLa cells; type: cell-based; details: HeLa cells (PARK2 null), after 7 h and 24 h
Excerpt: as §1

TSPO [9] = test: Immunoblotting of TSPO levels in MEF cells; type: cell-based, mouse; details: 24 h, 1 μM sulforaphane or 10 μM PMI, vs control
Description: as §2
(B) Graph show MTCO-1:β-actin (B), β-subunit:β-actin (C), TSPO:β-actin ratio band density analysis, n=3.
(§5) TSPO has been recently described as a modulator of mitophagy (Gatliff et al., 2014). We were therefore interested to examine if PMI and sulforaphane alter its accumulation on Mitochondria as well as its transcription levels FIG. 6E.

TSPO mRNA = test: RT-PCR of TSPO mRNA levels in MEF cells; type: cell-based, mouse; details: 24 h, PMI (10 μM) or sulforaphane (1 μM), vs control
Description: (D) RT-PCR analysis for estimation of TSPO mRNA levels in MEFs following treatment with DMSO, PMI (10 μM) and/or sulforaphane (1 μM). Values are presented as arbitrary units normalized to 18s RNA levels for each sample, n≥3.
as §5

TSPO [10] = test: TSPO expression in PARK2 null cells (HeLa); type: cell-based
P62 [11] = details: East et al 2014, cited from earlier work
p62 [12] = details: MEF cells, 24 h, 1 μM sulforaphane
Description: (A) Representative images of P62 localization in MEF cells treated with DMSO vehicle control, or 1 μM sulforaphane and/or 10 μM PMI for 24 hr. Scale bar represents 10 μm. A magnification of the merge images is shown in areas demarcated by the white box. […].
as §4

MEF cells [13] = details: 24 h, 1 μM sulforaphane or 10 μM PMI, previously reported work (East et al., 2014), FIG. 1C; cited from earlier work

## C[n+]1ccc(-c2ccccc2)cc1 [MPP^+]
TSPO [1]
  TSPO expression: upregulate TSPO

## O=[N+]([O-])c1cccc(-c2cn(-c3cccc(I)c3)nn2)c1 [PMI]
[2]
  degradation of the Keap1 Kelch protein: without causing a degradation of the Keap1 Kelch protein
  disruption of the protein-protein interaction between Keap1 and Nrf2: able to disrupt the protein-protein interaction between Keap1 and Nrf2 in a dose-dependent manner
MEF cells [3]
  mitochondrial network / key mitochondrial protein levels by western blot: reduced mitochondrial network
MEF cells [4]
  mitochondrial LC3 colocalisation (mitophagy): significantly increased compared to untreated cells
MEF cells [5]; vs vehicle control
  ubiquitination in mitochondrial fractions: increased ubiquitination
PARK2 [6]
  levels of PARK2 in mitochondrial fractions: no statistically significant differences
PARK2 [6]; sulforaphane plus PMI
  sulforaphane-reduced PARK2 activity, on addition of PMI: did not alter the reduced activity of PARK2
PARK2 [7]
  FCCP-induced PARK2 translocation: no statistically significant differences
PARK2 [8]
  time of FCCP treatment to almost complete co-localisation of PARK2 in mitochondria: approximately 60 mins
  time of FCCP treatment at which PARK2 translocation was initiated: 30 min
HeLa cells
  induction of mitophagy (mitochondrial protein levels): induction of mitophagy was observed
TSPO [9]
  levels of TSPO by immunoblotting: reduction in the levels of TSPO; also recorded: decreases TSPO levels in MEFs
TSPO mRNA
  levels of TSPO mRNA (RT-PCR): reduced compared to control
TSPO [10]
  expression of TSPO: but not in the cells in which PARK2 is not expressioned such as HeLa cells
P62 [11]
  P62 expression: upregulates P62 via stabilization of Nrf2
  mitophagy: promotes mitophagy
P62 [11]; at the concentrations used in the assays
  toxic effects on cells: does not mediate any apparent toxic effects on cells

## NCCc1cc(O)c(O)cc1O [6-HOD]
TSPO [1]
  TSPO expression: upregulate TSPO

## C[S+]([O-])CCCCN=C=S (stereo not shown) [sulforaphane]
MEF cells [3]
  PMI (Nrf2)-induced reduction of mitochondrial protein levels, on co-administration of sulforaphane: significant normalization of the mitochondrial protein levels
  mitochondrial network / key mitochondrial protein levels by western blot: no significant differences
MEF cells [3]; listed as Sulforaphane
  PMI (Nrf2)-induced reduction of mitochondrial protein levels, on co-administration of sulforaphane: inhibits the Nrf2-induced reduction of mitochondrial protein levels
MEF cells [4]
  mitochondrial LC3 colocalisation (mitophagy): no induction of mitophagy was observed
MEF cells [4]; 10 μM PMI plus 1 μM sulforaphane
  mitochondrial LC3 colocalisation attributed to PMI, on addition of sulforaphane: abolished
p62 [12]
  levels of p62 in the cytosol: increased levels of p62 in the cytosol compared to control
  translocation of p62 to mitochondria: impaired and significantly reduced compared to basal conditions
MEF cells [5]; PMI plus sulforaphane
  PMI-induced mitochondrial ubiquitination, on co-administration of sulforaphane: abolished the effect attributed to PMI
PARK2 [6]
  levels of PARK2 in mitochondrial fractions: reduced compared to the vehicle control
PARK2 [7]
  FCCP-induced PARK2 translocation: no statistically significant differences
PARK2 [8]
  time of FCCP treatment to almost complete co-localisation of PARK2 in mitochondria: approximately 60 mins
  time of FCCP treatment at which PARK2 translocation was initiated: 30 min
HeLa cells
  induction of mitophagy (mitochondrial protein levels): induction of mitophagy was observed
TSPO [9]
  levels of TSPO by immunoblotting: no significant differences were observed
TSPO [9]; listed as Sulforaphane
  levels of TSPO by immunoblotting: does not affect the expression of TSPO
TSPO mRNA
  levels of TSPO mRNA (RT-PCR): statistically significant increase
TSPO [10]
  expression of TSPO: does not affect the expression of TSPO
MEF cells [13]
  mitochondrial proteins (MTCO-1) by Western blot: an increase in mitochondrial proteins
